IC50 and melting point data for 19 compounds are collected here from patent US10011614B2, “Bis-β-carboline compound and preparation method, pharmaceutical composition and use thereof” (XINJIANG HUASHIDAN PHARMACEUTICAL RESEARCH CO., LTD., priority 2012, dated 2018).

SMILES strings stand for the structures.

In data set [1] the test system is SK-OV-3 (human ovarian cancer cells). The data set is described as follows: Antitumor screening in vitro, MTT assay, SK-OV-3. It is filed as cell-based. Particulars: 48 hours, SK-OV-3 cells. On the procedure:
(§1) Cell lines: BGC (human gastric cancer cells), A375 (human malignant melanoma cells), 769-P (human renal carcinoma cells), KB (human oral epidermoid carcinoma cells), SK-OV-3 (human ovarian cancer cells), etc, were selected, and the test method was the MTT assay. Cisplatin was as a positive control.
(§2) Specific methods are as follows: cells growing well in the logarithmic phase were seeded in 96-well plates at a concentration of 1×10^4 cells/ml, and then were placed in 37° C., containing 5% CO2 incubator for 24 hours. After discarding the old solution, changed fresh medium, and added sterilization treatment compound, and then cultured for 48 hours. After discarding the culture medium, 20 ul RPMI1640 medium containing 5 mg/ml MTT were added to each well in 96-well plates and cells were cultured for 4 hours. After the supernatant was carefully removed, 100 μl DMSO was added to each well, and the plates were Oscillated about 10 min to dissolve the precipitate, followed by detecting OD value in wavelength 490 nm by the microplate reader. Cell survival rate for each sample concentrations was determined by the following formula: The mean survival rate %=the average OD value of sample group/the average OD value of control group×100%
(§3) Morphological studies by mapping with the logarithm of the drug concentration and the mean survival rate % of each sample to obtain IC50 values for each sample.

Data set [2] deals with A375 (human malignant melanoma cells). In words: Antitumor screening in vitro, MTT assay, A375. It is filed as cell-based. On the procedure:
as §1, §2, §3
A general note: Tetrazolium assays rely on reduction of a dye to a coloured formazan, in cell work by metabolically active cells.

For data set [3], the system named is 769-P (human renal carcinoma cells). In words: Antitumor screening in vitro, MTT assay, 769-P. The class given is cell-based. The note with it: 48 hours, 769-P cells. On the procedure:
as §1, §2, §3

Data set [4] relates to KB (human oral epidermoid carcinoma cells). In words: Antitumor screening in vitro, MTT assay, KB. The class given is cell-based. The note with it: 48 hours. How it is done:
as §1, §2, §3

Data set [5] has as its system BGC (human gastric cancer cells). In words: Antitumor screening in vitro, MTT assay, BGC. It is filed as cell-based. Particulars: 48 hours. On the procedure:
as §1, §2, §3

Usually IC50 stands for the midpoint of a concentration-inhibition curve. A low value points to inhibition by little substance. With `N.N.[Cl][Pt][Cl]` [Cisplatin, reference compound], the half-inhibitory concentration (IC50) amounted to 4.2 µM in data set [1]; 39.2 µM in data set [2] (48 hours); 11.6 µM in data set [3]; 13.1 µM in data set [4]; 17.3 µM in data set [5].
For `c1ccc2c(c1)c1ccncc1n2CCCCCn1c2ccccc2c2ccncc21` [Compound 2, 1,5-bis(β-carboline-9-yl)pentane], the IC50 was over 300 µM in data set [1] (Homo sapiens); 10.2 µM in data set [2] (Homo sapiens, A-375, 48 hours); 15.3 µM in data set [3] (Homo sapiens); over 300 µM in data set [4] (Homo sapiens); 23.5 µM in data set [5] (Homo sapiens).
Consider `c1ccc2c(c1)c1ccncc1n2CCCCCCn1c2ccccc2c2ccncc21` [Compound 3, 1,6-bis(β-carboline-9-yl) hexane], for which the IC50 was 38.9 µM in data set [1] (Homo sapiens); 10.8 µM in data set [2] (Homo sapiens, A-375, 48 hours); 12.8 µM in data set [3] (Homo sapiens); 13.9 µM in data set [4] (Homo sapiens); 13.8 µM in data set [5] (Homo sapiens).
With `c1ccc2c(c1)c1ccncc1n2CCCCCCCn1c2ccccc2c2ccncc21` [Compound 4, 1,7-bis(11-carboline-9-yl) heptane], the IC50 was 212 µM in data set [1]; 286 µM in data set [2] (48 hours); 53 µM in data set [3]; over 300 µM in data set [4]; over 300 µM in data set [5].
The melting point is the temperature, or range, at which the solid turns liquid. As for `c1ccc2c(c1)c1ccncc1n2CCCCCCCCn1c2ccccc2c2ccncc21` [Compound 5, 1,8-bis(β-carboline-9-yl) octane], the melting point fell in the range of 180 to 181 °C. In data set [1] (Homo sapiens), the concentration for half-maximal inhibition (IC50) was determined as 33.5 µM. Also, half-maximal inhibition in data set [2] (Homo sapiens, A-375, 48 hours) (IC50) was put at 285 µM. In data set [3] (Homo sapiens), this compound showed an IC50 of over 300 µM. In addition, in data set [4] (Homo sapiens), the IC50 was over 300 µM. Further, the IC50 in data set [5] (Homo sapiens) was over 300 µM.
Turning to `COc1ccc2c3ccnc(C)c3n(CCCCCCCC(C)n3c4cc(OC)ccc4c4ccnc(C)c43)c2c1` (stereo not drawn) [Compound 18, 1,8-bis(7-methoxy-1-methyl-β-carboline-9-yl) nonane], the IC50 amounted to 10.2 µM in data set [1] (Homo sapiens); 113 µM in data set [2] (Homo sapiens, A-375, 48 hours); 114 µM in data set [3] (Homo sapiens); 38.6 µM in data set [4] (Homo sapiens); 104 µM in data set [5] (Homo sapiens).
In the case of `COc1cc(-c2nccc3c4ccccc4n(CCCCCCCn4c5ccccc5c5ccnc(-c6cc(OC)c(OC)c(OC)c6)c54)c23)cc(OC)c1OC` [Compound 20, 1,7-bis[1-(3,4,5-trimethoxy)phenyl-β-carboline-9-yl) heptane], the IC50 was over 300 µM in data set [1]; 4 µM in data set [2] (48 hours); 3.3 µM in data set [3]; 7.6 µM in data set [4]; over 300 µM in data set [5].
Consider `CCCCOc1ccc2c3ccnc(C)c3n(CCCCCCn3c4cc(OCCCC)ccc4c4ccnc(C)c43)c2c1` [Compound 24, 1,6-bis(7-n-butoxy-1-methyl-β-carboline-9-yl) hexane], for which the IC50 in data set [1] (Homo sapiens) is over 300 µM; in data set [2] (Homo sapiens, A-375, 48 hours) it was over 300 µM; in data set [3] (Homo sapiens), 56 µM; in data set [4] (Homo sapiens), over 300 µM; in data set [5] (Homo sapiens), over 300 µM.
`Cc1nccc2c3ccc(OC(C)C)cc3n(CCCCCCn3c4cc(OC(C)C)ccc4c4ccnc(C)c43)c12` [Compound 25, 1,6-bis(7-isopropoxy-1-methyl-β-carboline-9-yl) hexane]: the IC50 in data set [1] (Homo sapiens) was found to be 17.1 µM; in data set [2] (Homo sapiens, A-375, 48 hours), 18.5 µM; in data set [3] (Homo sapiens), 95.4 µM; in data set [4] (Homo sapiens), 19.8 µM; in data set [5] (Homo sapiens) it was 194 µM.
As to `CCOC(=O)c1cc2c3ccccc3n(CCCCCCCCCn3c4ccccc4c4cc(C(=O)OCC)nc(-c5cc(OC)c(OC)c(OC)c5)c43)c2c(-c2cc(OC)c(OC)c(OC)c2)n1` [Compound 28, 1,9-bis[1-(3,4.5-trimethoxy)phenyl-β-carboline-3-ethyoxylcarbonyl-9-yl]nonane], the IC50 in data set [1] is over 300 µM; in data set [2] (48 hours), 218 µM; in data set [3] it was 44.6 µM; in data set [4], over 300 µM; in data set [5] it was over 300 µM.
In the case of `CCOC(=O)c1cc2c3ccccc3n(CCCCCn3c4ccccc4c4cc(C(=O)OCC)nc(-c5cccnc5)c43)c2c(-c2cccnc2)n1` [Compound 29, 1,5-bis[3-ethyoxylcarbonyl-1-(pyridine-3-yl)-β-carboline-9-yl]pentane], the IC50 in data set [1] is over 300 µM; in data set [2] (48 hours), 13 µM; in data set [3], 132 µM; in data set [4] it was 15.7 µM; in data set [5], 24.1 µM.
As for `CCOC(=O)c1cc2c3ccccc3n(CCCCCCn3c4ccccc4c4cc(C(=O)OCC)nc(-c5cccnc5)c43)c2c(-c2cccnc2)n1` [Compound 30, 1,6-bis[3-ethyoxylcarbonyl-1-(pyridine-3-yl)-β-carboline-9-yl]hexane], the IC50 in data set [1] was 68.3 µM; in data set [2] (48 hours), over 300 µM; in data set [3] it was over 300 µM; in data set [4] it was over 300 µM; in data set [5], over 300 µM.
Consider `c1cncc(-c2nccc3c4ccccc4n(CCCCCCn4c5ccccc5c5ccnc(-c6cccnc6)c54)c23)c1` [Compound 32, 1,6-bis[1-(pyridine-3-yl)-β-carboline-9-yl) hexane], for which the IC50 in data set [1] (Homo sapiens) is 14.9 µM; in data set [2] (Homo sapiens, A-375, 48 hours), 5.3 µM; in data set [3] (Homo sapiens), over 300 µM; in data set [4] (Homo sapiens) it was 13.3 µM; in data set [5] (Homo sapiens) it was 14.1 µM.
As to `Clc1ccccc1-c1nccc2c3ccccc3n(CCCCCCn3c4ccccc4c4ccnc(-c5ccccc5Cl)c43)c12` [Compound 35], the IC50 is over 300 µM in data set [1]; 23.2 µM in data set [2] (48 hours); over 300 µM in data set [3]; over 300 µM in data set [4]; over 300 µM in data set [5].
Take `Clc1ccccc1-c1nccc2c3ccccc3n(CCCCCCCn3c4ccccc4c4ccnc(-c5ccccc5Cl)c43)c12` [Compound 36, 1,7-bis[1-(2-chlorophenyl)-β-carboline-9-yl) heptane]: the IC50 is over 300 µM in data set [1] (Homo sapiens); 10.4 µM in data set [2] (Homo sapiens, A-375, 48 hours); 82.1 µM in data set [3] (Homo sapiens); over 300 µM in data set [4] (Homo sapiens); over 300 µM in data set [5] (Homo sapiens).
On to `O=[N+]([O-])c1ccc(Cl)c(-c2nccc3c4ccccc4n(CCCCCCn4c5ccccc5c5ccnc(-c6cc([N+](=O)[O-])ccc6Cl)c54)c23)c1` [Compound 37, 1,6-bis[1-(2-chloro-5-nitro-phenyl)-⊕-carboline-9-yl) hexane], for which the IC50 is over 300 µM in data set [1]; 7 µM in data set [2] (48 hours); 3.8 µM in data set [3]; over 300 µM in data set [4]; over 300 µM in data set [5].
`O=[N+]([O-])c1ccc(Cl)c(-c2nccc3c4ccccc4n(CCCCCCCCCn4c5ccccc5c5ccnc(-c6cc([N+](=O)[O-])ccc6Cl)c54)c23)c1` [Compound 38, 1,9-bis[1-(2-chloro-5-nitrophenyl)-β-carboline-9-yl) nonane]: the IC50 in data set [1] (Homo sapiens) was over 300 µM; in data set [2] (Homo sapiens, A-375, 48 hours), over 300 µM; in data set [3] (Homo sapiens) it was 1.8 µM; in data set [4] (Homo sapiens), over 300 µM; in data set [5] (Homo sapiens), over 300 µM.
On to `CC(C)c1nccc2c3ccccc3n(CCCCCCCCCCn3c4ccccc4c4ccnc(C(C)C)c43)c12` [Compound 40, 1,10-bis[1-isopropyl-β-carboline-9-yl) decane], for which the IC50 is over 300 µM in data set [1] (Homo sapiens); 19.6 µM in data set [2] (Homo sapiens, A-375, 48 hours); 4.6 µM in data set [3] (Homo sapiens); over 300 µM in data set [4] (Homo sapiens); over 300 µM in data set [5] (Homo sapiens).
With `Brc1ccc2c(c1)c1ccncc1n2CCCCn1c2ccc(Br)cc2c2ccncc21` [Compound 41, 1,4-bis[6-bromo-βcarboline-9-yl) butane], the IC50 in data set [1] (Homo sapiens) is 8.9 µM; in data set [2] (Homo sapiens, A-375, 48 hours) it was over 300 µM; in data set [3] (Homo sapiens), 3.1 µM; in data set [4] (Homo sapiens) it was over 300 µM; in data set [5] (Homo sapiens), over 300 µM.
